The results in this text go back to the supplement of paper PMC10307832.

Assay in all cases: relative viability (nuclei count vs DMSO), 5 days (fraction); higher = more cells survive
Compound in the experiment “Kobe2602 + Crizotinib”: C1=CC(=CC=C1NC(=S)NNC2=C(C=C(C=C2[N+](=O)[O-])C(F)(F)F)[N+](=O)[O-])F [Kobe2602] + C[C@@H](Oc1cc(-c2cnn(C3CCNCC3)c2)cnc1N)c1c(Cl)ccc(F)c1Cl [Crizotinib] (partner 1 µM)
An outline of the steps: (§1)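 Lung cancer cell lines in 1536-well plates got either a single drug or a fixed anchor-drug dose together with five library-drug doses (not always all listed) in √10 steps, by pin tool, on the day after seeding. Nuclei were counted after 5 days, and relative viability is the treated-to-vehicle ratio of nuclei counts. Values are medians of duplicate plates.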

Compound in the experiment “Kobe2602 + Phenformin”: C1=CC(=CC=C1NC(=S)NNC2=C(C=C(C=C2[N+](=O)[O-])C(F)(F)F)[N+](=O)[O-])F [Kobe2602] + N=C(N)NC(=N)NCCc1ccccc1 [Phenformin] (partner 250 µM)
The gist of the method:
as §1

Compound in the experiment “Cabozantinib + Dasatinib”: COc1cc2nccc(Oc3ccc(NC(=O)C4(C(=O)Nc5ccc(F)cc5)CC4)cc3)c2cc1OC [Cabozantinib] + Cc1nc(Nc2ncc(C(=O)Nc3c(C)cccc3Cl)s2)cc(N2CCN(CCO)CC2)n1 [Dasatinib] (partner 0.075 µM)
An outline of the steps:
as §1

Compound in the experiment “Zosuquidar + Bortezomib”: O[C@@H](COc1cccc2ncccc12)CN1CCN([C@@H]2c3ccccc3[C@@H]3[C@H](c4ccccc42)C3(F)F)CC1 [Zosuquidar] + CC(C)C[C@H](NC(=O)[C@H](Cc1ccccc1)NC(=O)c1cnccn1)B(O)O [Bortezomib] (partner 0.002 µM)
An outline of the steps: as §1

On to NCI-H2023, for which the relative viability was 0.674 with Kobe2602 + Crizotinib (first compound 0.2 µM); 0.627 with Kobe2602 + Crizotinib (first compound 0.6325 µM); 0.526 in the experiment with Kobe2602 + Crizotinib (first compound 2 µM); 0.611 in the experiment with Kobe2602 + Crizotinib (first compound 6.325 µM); 0.473 with Kobe2602 + Crizotinib (first compound 20 µM); 0.419 with Kobe2602 + Phenformin (first compound 0.2 µM). The relative viability with Kobe2602 + Phenformin (first compound 0.6325 µM) turned out to be 0.442; with Kobe2602 + Phenformin (first compound 2 µM), 0.432; in the experiment with Kobe2602 + Phenformin (first compound 6.325 µM) it was 0.352; with Kobe2602 + Phenformin (first compound 20 µM) it was 0.244; with Cabozantinib + Dasatinib (first compound 0.02 µM), 0.45; with Cabozantinib + Dasatinib (first compound 0.06325 µM) it was 0.531. Further, the relative viability in the experiment with Cabozantinib + Dasatinib (first compound 0.2 µM) was 0.369; with Cabozantinib + Dasatinib (first compound 0.6325 µM), 0.311; with Cabozantinib + Dasatinib (first compound 2 µM) it was 0.248; with Zosuquidar + Bortezomib (first compound 0.01 µM), 0.93; with Zosuquidar + Bortezomib (first compound 0.03162 µM) it was 0.939; with Zosuquidar + Bortezomib (first compound 0.1 µM) it was 0.878. For the same cell line, the figures for the relative viability in the experiment with Zosuquidar + Bortezomib (first compound 0.3162 µM) and with Zosuquidar + Bortezomib (first compound 1 µM) were 1.4 and 1.06, respectively.
In the case of NCI-H2085, the relative viability is 0.843 in the experiment with Kobe2602 + Crizotinib (first compound 0.2 µM); 0.823 with Kobe2602 + Crizotinib (first compound 0.6325 µM); 0.904 in the experiment with Kobe2602 + Crizotinib (first compound 2 µM); 0.855 with Kobe2602 + Crizotinib (first compound 6.325 µM); 0.723 with Kobe2602 + Crizotinib (first compound 20 µM); 0.682 with Kobe2602 + Phenformin (first compound 0.2 µM). Also, the relative viability with Kobe2602 + Phenformin (first compound 0.6325 µM) amounted to 0.687; in the experiment with Kobe2602 + Phenformin (first compound 6.325 µM) it was 0.684; with Kobe2602 + Phenformin (first compound 20 µM), 0.708; with Cabozantinib + Dasatinib (first compound 0.02 µM) it was 0.285; with Cabozantinib + Dasatinib (first compound 0.06325 µM) it was 0.268; in the experiment with Cabozantinib + Dasatinib (first compound 0.2 µM), 0.244. For the same cell line, the relative viability with Cabozantinib + Dasatinib (first compound 0.6325 µM) was found to be 0.218; with Cabozantinib + Dasatinib (first compound 2 µM), 0.216; in the experiment with Zosuquidar + Bortezomib (first compound 0.01 µM), 1.11; with Zosuquidar + Bortezomib (first compound 0.03162 µM), 0.987; with Zosuquidar + Bortezomib (first compound 0.1 µM), 0.852; in the experiment with Zosuquidar + Bortezomib (first compound 0.3162 µM), 1.1. The relative viability with Zosuquidar + Bortezomib (first compound 1 µM) is 1.06.
Turning to NCI-H2087, the relative viability in the experiment with Kobe2602 + Crizotinib (first compound 0.2 µM) was found to be 0.671; in the experiment with Kobe2602 + Crizotinib (first compound 0.6325 µM) it was 0.766; in the experiment with Kobe2602 + Crizotinib (first compound 2 µM), 0.922; in the experiment with Kobe2602 + Crizotinib (first compound 6.325 µM), 0.786; in the experiment with Kobe2602 + Crizotinib (first compound 20 µM), 0.802; in the experiment with Kobe2602 + Phenformin (first compound 0.2 µM), 0.437. Further, the relative viability with Kobe2602 + Phenformin (first compound 0.6325 µM) was 0.47; with Kobe2602 + Phenformin (first compound 2 µM) it was 0.462; with Kobe2602 + Phenformin (first compound 6.325 µM), 0.471; with Kobe2602 + Phenformin (first compound 20 µM), 0.438; in the experiment with Cabozantinib + Dasatinib (first compound 0.02 µM) it was 0.694; with Cabozantinib + Dasatinib (first compound 0.06325 µM), 0.957. The relative viability is 0.823 in the experiment with Cabozantinib + Dasatinib (first compound 0.2 µM); 0.78 with Cabozantinib + Dasatinib (first compound 0.6325 µM); 0.557 with Cabozantinib + Dasatinib (first compound 2 µM); 0.849 in the experiment with Zosuquidar + Bortezomib (first compound 0.01 µM); 0.701 with Zosuquidar + Bortezomib (first compound 0.03162 µM); 0.94 with Zosuquidar + Bortezomib (first compound 0.1 µM). Moreover, the figures for the relative viability with Zosuquidar + Bortezomib (first compound 0.3162 µM) and with Zosuquidar + Bortezomib (first compound 1 µM) were 0.923 and 0.85, respectively.
As to NCI-H2126, the relative viability in the experiment with Kobe2602 + Crizotinib (first compound 0.2 µM) was 1.01; with Kobe2602 + Crizotinib (first compound 0.6325 µM), 1.06; with Kobe2602 + Crizotinib (first compound 2 µM) it was 0.962; with Kobe2602 + Crizotinib (first compound 6.325 µM) it was 1.01; in the experiment with Kobe2602 + Crizotinib (first compound 20 µM), 0.912; with Kobe2602 + Phenformin (first compound 0.2 µM), 0.552. For the same cell line, the relative viability with Kobe2602 + Phenformin (first compound 0.6325 µM) was determined as 0.53; with Kobe2602 + Phenformin (first compound 2 µM), 0.521; with Kobe2602 + Phenformin (first compound 6.325 µM), 0.513; in the experiment with Kobe2602 + Phenformin (first compound 20 µM) it was 0.494; with Cabozantinib + Dasatinib (first compound 0.02 µM), 0.497; with Cabozantinib + Dasatinib (first compound 0.06325 µM), 0.625. The relative viability in the experiment with Cabozantinib + Dasatinib (first compound 0.2 µM) is 0.624; in the experiment with Cabozantinib + Dasatinib (first compound 0.6325 µM), 0.634; with Cabozantinib + Dasatinib (first compound 2 µM), 0.573; with Zosuquidar + Bortezomib (first compound 0.01 µM) it was 1.12; with Zosuquidar + Bortezomib (first compound 0.03162 µM), 1.04; with Zosuquidar + Bortezomib (first compound 0.1 µM) it was 1.01. In addition, the relative viability in the experiment with Zosuquidar + Bortezomib (first compound 0.3162 µM) was 1.19; in the experiment with Zosuquidar + Bortezomib (first compound 1 µM), 1.09.
Regarding NCI-H2228, the relative viability was 0.484 in the experiment with Kobe2602 + Crizotinib (first compound 0.2 µM); 0.504 with Kobe2602 + Crizotinib (first compound 0.6325 µM); 0.441 in the experiment with Kobe2602 + Crizotinib (first compound 2 µM); 0.494 in the experiment with Kobe2602 + Crizotinib (first compound 6.325 µM); 0.585 with Kobe2602 + Crizotinib (first compound 20 µM); 0.35 in the experiment with Kobe2602 + Phenformin (first compound 0.2 µM). Also, the relative viability with Kobe2602 + Phenformin (first compound 0.6325 µM) amounted to 0.449; with Kobe2602 + Phenformin (first compound 2 µM), 0.359; with Kobe2602 + Phenformin (first compound 6.325 µM), 0.295; with Kobe2602 + Phenformin (first compound 20 µM), 0.361; with Cabozantinib + Dasatinib (first compound 0.02 µM), 0.531; with Cabozantinib + Dasatinib (first compound 0.06325 µM), 0.624. The relative viability turned out to be 0.471 in the experiment with Cabozantinib + Dasatinib (first compound 0.2 µM); 0.472 with Cabozantinib + Dasatinib (first compound 0.6325 µM); 0.55 with Cabozantinib + Dasatinib (first compound 2 µM); 1.06 with Zosuquidar + Bortezomib (first compound 0.01 µM); 1.02 with Zosuquidar + Bortezomib (first compound 0.03162 µM); 0.634 with Zosuquidar + Bortezomib (first compound 0.1 µM). For the same cell line, the relative viability in the experiment with Zosuquidar + Bortezomib (first compound 0.3162 µM) is 1.14; with Zosuquidar + Bortezomib (first compound 1 µM), 1.17.
For the cell line NCI-H2347, the relative viability turned out to be 0.613 in the experiment with Kobe2602 + Crizotinib (first compound 0.2 µM); 0.643 with Kobe2602 + Crizotinib (first compound 0.6325 µM); 0.612 in the experiment with Kobe2602 + Crizotinib (first compound 2 µM); 0.712 in the experiment with Kobe2602 + Crizotinib (first compound 6.325 µM); 0.785 with Kobe2602 + Crizotinib (first compound 20 µM); 0.529 with Kobe2602 + Phenformin (first compound 0.2 µM). Moreover, the relative viability stood at 0.48 in the experiment with Kobe2602 + Phenformin (first compound 0.6325 µM); 0.375 with Kobe2602 + Phenformin (first compound 2 µM); 0.469 in the experiment with Kobe2602 + Phenformin (first compound 6.325 µM); 0.407 in the experiment with Kobe2602 + Phenformin (first compound 20 µM); 0.3 with Cabozantinib + Dasatinib (first compound 0.02 µM); 0.283 with Cabozantinib + Dasatinib (first compound 0.06325 µM). Besides, the relative viability in the experiment with Cabozantinib + Dasatinib (first compound 0.2 µM) worked out at 0.321; in the experiment with Cabozantinib + Dasatinib (first compound 2 µM) it was 0.296; with Zosuquidar + Bortezomib (first compound 0.01 µM), 1.2; with Zosuquidar + Bortezomib (first compound 0.03162 µM), 0.979; with Zosuquidar + Bortezomib (first compound 0.1 µM) it was 1.04; with Zosuquidar + Bortezomib (first compound 0.3162 µM) it was 1.22. Further, in the experiment with Zosuquidar + Bortezomib (first compound 1 µM), the relative viability was 0.6.
